System: 653999-131-R-J2-PDC complex spheroids, growth inhibition
Experiment: Anticancer human tumor 653999-131-R-J2-PDC patient-derived lung adenocarcinoma cell line growth inhibition [RAS]
Details: for IC50: curve of first compound; for viability, T/C: stronger effect = lower value
Procedure, shortened: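 Agents were tested in combination matrices in half-log decrements from a top concentration at or near clinical Cmax (10 microM if undetermined). Targets were multi-cell spheroids of tumour lines plus HUVEC and MSC stromal cells.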

[1] = second compound 0.00316 µM, first compound 0.0316 µM
[2] = second compound 0.00316 µM, first compound 0.1 µM
[3] = second compound 0.00316 µM, first compound 0.316 µM
[4] = second compound 0.00316 µM, first compound 1 µM
[5] = second compound 0.00316 µM, first compound 3.16 µM
[6] = second compound 0.00316 µM, first compound 10 µM
[7] = second compound 0.01 µM, first compound 0.0316 µM
[8] = second compound 0.01 µM, first compound 0.1 µM
[9] = second compound 0.01 µM, first compound 0.316 µM
[10] = second compound 0.01 µM, first compound 1 µM
[11] = second compound 0.01 µM, first compound 3.16 µM
[12] = second compound 0.01 µM, first compound 10 µM
[13] = second compound 0.0316 µM, first compound 0.0316 µM
[14] = second compound 0.0316 µM, first compound 0.1 µM
[15] = second compound 0.0316 µM, first compound 0.316 µM
[16] = second compound 0.0316 µM, first compound 1 µM
[17] = second compound 0.0316 µM, first compound 3.16 µM
[18] = second compound 0.0316 µM, first compound 10 µM
[19] = second compound 0.1 µM, first compound 0.0316 µM
[20] = second compound 0.1 µM, first compound 0.1 µM
[21] = second compound 0.1 µM, first compound 0.316 µM
[22] = second compound 0.1 µM, first compound 1 µM
[23] = second compound 0.1 µM, first compound 3.16 µM
[24] = second compound 0.1 µM, first compound 10 µM
[25] = second compound 0.316 µM, first compound 0.0316 µM
[26] = second compound 0.316 µM, first compound 0.1 µM
[27] = second compound 0.316 µM, first compound 0.316 µM
[28] = second compound 0.316 µM, first compound 1 µM
[29] = second compound 0.316 µM, first compound 3.16 µM
[30] = second compound 0.316 µM, first compound 10 µM
[31] = second compound 1 µM, first compound 0.0316 µM
[32] = second compound 1 µM, first compound 0.1 µM
[33] = second compound 1 µM, first compound 0.316 µM
[34] = second compound 1 µM, first compound 1 µM
[35] = second compound 1 µM, first compound 3.16 µM
[36] = second compound 1 µM, first compound 10 µM
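Note: spheroids exposed to the agents for seven days before the readout.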

## CC(C)NCC(C(=O)N1CCN(c2ncnc3c2C(C)CC3O)CC1)c1ccc(Cl)cc1 (stereo unspecified) + C=CC(=O)N1CCN(c2nc(OCC3CCCN3C)nc3c(F)c(-c4nc(N)cc(C)c4C(F)(F)F)c(Cl)cc23)C(C)C1
Second compound 0.00316 µM
  IC50: 1.31 µM
Second compound 0.01 µM
  IC50: 1.96 µM
Second compound 0.0316 µM
  IC50: 1.41 µM
Second compound 0.1 µM
  IC50: 1.54 µM
Second compound 0.316 µM
  IC50: 1.5 µM
Second compound 1 µM
  IC50: 0.927 µM
[1]
  viability, T/C: 116%
[2]
  viability, T/C: 104%
[3]
  viability, T/C: 96.6%
[4]
  viability, T/C: 52%
[5]
  viability, T/C: 41.7%
[6]
  viability, T/C: 40.8%
[7]
  viability, T/C: 89.6%
[8]
  viability, T/C: 100%
[9]
  viability, T/C: 69.1%
[10]
  viability, T/C: 61.1%
[11]
  viability, T/C: 44.2%
[12]
  viability, T/C: 40.9%
[13]
  viability, T/C: 98.6%
[14]
  viability, T/C: 97.3%
[15]
  viability, T/C: 73.9%
[16]
  viability, T/C: 54%
[17]
  viability, T/C: 43.6%
[18]
  viability, T/C: 35.5%
[19]
  viability, T/C: 104%
[20]
  viability, T/C: 95.1%
[21]
  viability, T/C: 76.2%
[22]
  viability, T/C: 52.9%
[23]
  viability, T/C: 45.1%
[24]
  viability, T/C: 37.7%
[25]
  viability, T/C: 90.2%
[26]
  viability, T/C: 95.9%
[27]
  viability, T/C: 82.6%
[28]
  viability, T/C: 53.8%
[29]
  viability, T/C: 44.8%
[30]
  viability, T/C: 39.6%
[31]
  viability, T/C: 98.9%
[32]
  viability, T/C: 87.7%
[33]
  viability, T/C: 81.5%
[34]
  viability, T/C: 46.9%
[35]
  viability, T/C: 43.5%
[36]
  viability, T/C: 41.1%

## CC(C)n1nc(-c2ccc3oc(N)nc3c2)c2c(N)ncnc21 + C=CC(=O)N1CCN(c2nc(OCC3CCCN3C)nc3c(F)c(-c4nc(N)cc(C)c4C(F)(F)F)c(Cl)cc23)C(C)C1
Second compound 0.00316 µM
  IC50: 0.0142 µM
Second compound 0.01 µM
  IC50: 0.0094 µM
Second compound 0.0316 µM
  IC50: 0.0164 µM
Second compound 0.1 µM
  IC50: 0.0124 µM
Second compound 0.316 µM
  IC50: 0.0117 µM
Second compound 1 µM
  IC50: 0.0159 µM
Second compound 0.00316 µM, first compound 0.000316 µM
  viability, T/C: 98.1%
Second compound 0.00316 µM, first compound 0.001 µM
  viability, T/C: 78.4%
Second compound 0.00316 µM, first compound 0.00316 µM
  viability, T/C: 73.5%
Second compound 0.00316 µM, first compound 0.01 µM
  viability, T/C: 52.5%
[1]
  viability, T/C: 41.5%
[2]
  viability, T/C: 22.6%
Second compound 0.01 µM, first compound 0.000316 µM
  viability, T/C: 83.8%
Second compound 0.01 µM, first compound 0.001 µM
  viability, T/C: 97.3%
Second compound 0.01 µM, first compound 0.00316 µM
  viability, T/C: 68.8%
Second compound 0.01 µM, first compound 0.01 µM
  viability, T/C: 50.5%
[7]
  viability, T/C: 35%
[8]
  viability, T/C: 29.1%
Second compound 0.0316 µM, first compound 0.000316 µM
  viability, T/C: 101%
Second compound 0.0316 µM, first compound 0.001 µM
  viability, T/C: 91.3%
Second compound 0.0316 µM, first compound 0.00316 µM
  viability, T/C: 71.8%
Second compound 0.0316 µM, first compound 0.01 µM
  viability, T/C: 58.1%
[13]
  viability, T/C: 40.6%
[14]
  viability, T/C: 25%
Second compound 0.1 µM, first compound 0.000316 µM
  viability, T/C: 77.6%
Second compound 0.1 µM, first compound 0.001 µM
  viability, T/C: 74.6%
Second compound 0.1 µM, first compound 0.00316 µM
  viability, T/C: 70.7%
Second compound 0.1 µM, first compound 0.01 µM
  viability, T/C: 55.2%
[19]
  viability, T/C: 30.4%
[20]
  viability, T/C: 26.3%
Second compound 0.316 µM, first compound 0.000316 µM
  viability, T/C: 92.8%
Second compound 0.316 µM, first compound 0.001 µM
  viability, T/C: 82%
Second compound 0.316 µM, first compound 0.00316 µM
  viability, T/C: 66.3%
Second compound 0.316 µM, first compound 0.01 µM
  viability, T/C: 51.1%
[25]
  viability, T/C: 39.7%
[26]
  viability, T/C: 27.8%
Second compound 1 µM, first compound 0.000316 µM
  viability, T/C: 90.9%
Second compound 1 µM, first compound 0.001 µM
  viability, T/C: 91.8%
Second compound 1 µM, first compound 0.00316 µM
  viability, T/C: 72%
Second compound 1 µM, first compound 0.01 µM
  viability, T/C: 55.8%
[31]
  viability, T/C: 42.1%
[32]
  viability, T/C: 26.6%

## CC(Nc1ccc2c(c1)OCCn1cc(N3C(=O)OCC3C(F)F)nc1-2)C(N)=O (stereo unspecified) + C=CC(=O)N1CCN(c2nc(OCC3CCCN3C)nc3c(F)c(-c4nc(N)cc(C)c4C(F)(F)F)c(Cl)cc23)C(C)C1
Second compound 0.00316 µM
  IC50: 0.645 µM
Second compound 0.01 µM
  IC50: 0.717 µM
Second compound 0.0316 µM
  IC50: 0.636 µM
Second compound 0.1 µM
  IC50: 1.16 µM
Second compound 0.316 µM
  IC50: 0.536 µM
Second compound 1 µM
  IC50: 0.571 µM
[1]
  viability, T/C: 111%
[2]
  viability, T/C: 75.6%
[3]
  viability, T/C: 55.9%
[4]
  viability, T/C: 51.5%
[5]
  viability, T/C: 36.5%
[6]
  viability, T/C: 25.3%
[7]
  viability, T/C: 104%
[8]
  viability, T/C: 83.6%
[9]
  viability, T/C: 61.1%
[10]
  viability, T/C: 42.2%
[11]
  viability, T/C: 40.4%
[12]
  viability, T/C: 26.5%
[13]
  viability, T/C: 96.5%
[14]
  viability, T/C: 70.1%
[15]
  viability, T/C: 58.9%
[16]
  viability, T/C: 44.9%
[17]
  viability, T/C: 38.5%
[18]
  viability, T/C: 26%
[19]
  viability, T/C: 85.6%
[20]
  viability, T/C: 66.3%
[21]
  viability, T/C: 68.8%
[22]
  viability, T/C: 50.7%
[23]
  viability, T/C: 40%
[24]
  viability, T/C: 21.6%
[25]
  viability, T/C: 85.9%
[26]
  viability, T/C: 78.1%
[27]
  viability, T/C: 55.1%
[28]
  viability, T/C: 40.9%
[29]
  viability, T/C: 37.5%
[30]
  viability, T/C: 26.9%
[31]
  viability, T/C: 87.9%
[32]
  viability, T/C: 67.6%
[33]
  viability, T/C: 60.5%
[34]
  viability, T/C: 37.9%
[35]
  viability, T/C: 41.3%
[36]
  viability, T/C: 28.7%

From PubChem BioAssay AID2060886 (Molecular Pharmacology Branch, DTP, NCI, 2025)
